We go through four compounds from publication PMC8398714, “Synthesis and Evaluation of Biological Activities of Bis(spiropyrazolone)cyclopropanes: A Potential Application against Leishmaniasis” (Molecules, 2021).

For series [1], the system named is S. cerevisiae (W303 background). The series can be described thus: Fungicidal activity (growth, OD600) on S. cerevisiae. The format is cell-based, Saccharomyces cerevisiae. The settings on record: 24 h, OD600, concentrations 2.6 to 3000 µM, NA = no activity; for IC50: Saccharomyces cerevisiae, unit inferred, read-out: Inhibitory activity against S. cerevisiae W303 (IC50); for Inhibitory activity against S. cerevisiae W303 (IC50): unit not given. The protocol: Next, we determined the IC50 of bis(spiropyrazolone)cyclopropanes on a different eukaryotic model: the classical budding yeast S. cerevisiae. Cells were exposed to the compounds at concentrations ranging from 2.6 to 3000 µM for 24 h. The OD600 was measured to assess cell growth. […] These resistances could be explained by the presence of the fungal cell wall, which could limit the entry of bis(spiropyrazolone)cyclopropanes 4 into the cell. Other mechanisms cannot be ruled out, such as structural differences in molecular targets.
The antimicrobial activities of the synthesized compounds were tested against yeast S. cerevisiae (background W303), as described by Teran et al.. Concentrations ranging from 2468.7 to 2.4 µM were assayed.

The nature of series [2]: Stability of solutions by spectroscopic measurements. The format is physicochemical. The settings on record: DMSO solution; 100 μM in DMSO, room temperature.

Turning to `CC1=NN(c2ccccc2)C(=O)[C@@]12C(c1ccccc1)[C@@]21C(=O)N(c2ccccc2)N=C1C` (relative stereo) [4b, (5R*,6R*)-4,10-Dimethyl-2,8,11-triphenyl-2,3,8,9-tetraazadispiro[4.0.4.1]undeca-3,9-diene-1,7-dione], the IC50 (as a rule, the concentration needed to halve the response being measured) in series [1] stood at 1380 ± 304 µM. Further, the half-life – broadly, how long it takes for the measured level to halve – at 100 µM in series [2] is around 7.85 h. `COC(=O)c1ccc(C2[C@@]3(C(=O)N(c4ccccc4)N=C3C)[C@]23C(=O)N(c2ccccc2)N=C3C)cc1` (relative stereo) [4q, (5R*,6R*)-Methyl-4[4,10-dimethyl-2,8-diphenyl-2,3,8,9-tetraazadispiro[4.0.4.1]undeca-3,9-diene-1,7-dione-11-yl]benzoate]: in series [1], the “Inhibitory activity against S. cerevisiae W303 (IC50)” value was “slight measurable effect” and the IC50 stood at 1090 ± 38.5 µM. `CC1=NN(c2ccccc2)C(=O)[C@@]12C(c1ccc(C(F)(F)F)cc1)[C@@]21C(=O)N(c2ccccc2)N=C1C` (relative stereo) [4r, (5R*,6R*)-11-(4-Trifluoromethylphenyl)-4,10-dimethyl-2,8-diphenyl-2,3,8,9-tetraazadispiro[4.0.4.1]undeca-3,9-diene-1,7-dione]: in series [1], the IC50 was 1270 ± 119 µM. With `CC1=NN(c2ccccc2)C(=O)[C@@]12C(c1ccc(OC(F)(F)F)cc1)[C@@]21C(=O)N(c2ccccc2)N=C1C` (relative stereo) [4s, (5R*,6R*)-11-(4-Trifluoromethoxyphenyl)-4,10-dimethyl-2,8-diphenyl-2,3,8,9-tetraazadispiro[4.0.4.1]undeca-3,9-diene-1,7-dione], in series [1], the “Inhibitory activity against S. cerevisiae W303 (IC50)” value was “slight measurable effect” and the IC50 turned out to be 789 ± 37.3 µM.
